# Measured values reported in patent publication US10434079B2, “Compositions and methods for the treatment of fatty acid metabolism disorders” (The Children's Hospital of Philadelphia, priority 2013, dated 2019).
# Changes are numbered by the printed parent chain.
# Tests used:
# [1] = target: T1, C238A VLCAD (Mus musculus, UniProt P50544, C238A); assay: Hepa 1 to 6 cells expressing FLAG-tagged C238A VLCAD exposed to GSNO; assay type: cell-based; conditions: same GSNO treatment
# T1 construct: 3xFLAG (C); host or cells: Hepa 1 to 6 cells
# T1 sequence (P50544 42-656 C238A): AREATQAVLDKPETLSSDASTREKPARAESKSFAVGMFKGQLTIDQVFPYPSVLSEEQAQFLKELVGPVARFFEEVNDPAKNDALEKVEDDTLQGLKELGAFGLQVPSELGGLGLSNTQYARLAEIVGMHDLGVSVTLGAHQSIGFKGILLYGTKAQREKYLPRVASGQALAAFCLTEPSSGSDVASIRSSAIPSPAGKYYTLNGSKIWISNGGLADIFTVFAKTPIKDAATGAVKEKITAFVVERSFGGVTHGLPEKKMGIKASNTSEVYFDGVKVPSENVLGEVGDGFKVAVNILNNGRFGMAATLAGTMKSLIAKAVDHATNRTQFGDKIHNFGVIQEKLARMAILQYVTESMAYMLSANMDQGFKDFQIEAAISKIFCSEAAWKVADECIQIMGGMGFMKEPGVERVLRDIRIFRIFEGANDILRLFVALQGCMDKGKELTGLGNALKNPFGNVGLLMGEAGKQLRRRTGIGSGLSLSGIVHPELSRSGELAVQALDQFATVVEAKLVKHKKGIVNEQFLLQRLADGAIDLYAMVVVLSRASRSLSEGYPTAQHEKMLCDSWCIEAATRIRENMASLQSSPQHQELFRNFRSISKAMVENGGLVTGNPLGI
# Method: Liver homogenate (final concentration of 0.03 μg/μl) or cell lysate (final concentration of 0.09 μg/μl) in 100 mM potassium phosphate buffer (pH 7.2) containing 0.2% Triton X-100 and 0.1 mM EDTA was mixed with […] ferricenium ion, and the reaction was initiated by the addition of palmitoyl-CoA (the final volume of the assay was 130 μl). […] At least nine concentrations of palmitoyl-CoA, ranging from 0.015 to 2 mM, were used for the experimental determination of the apparent Vmax and KM of VLCAD for each animal. […] A unit of enzyme activity is defined as the amount of enzyme that causes the reduction of […] of ferricenium per minute at room temperature (ε=4.3 mM^−1 cm^−1 at 300 nm) (Izai et al. (1992) J. Biol. Chem., 267:1027-1033). […] The measurement of specific activity of VLCAD in liver homogenates (FIG. 2H) and cell lysates (FIG. 4) was performed in the presence of 0.25 and 0.125 mM palmitoyl-CoA, respectively.
# The QuikChange® Lightning Site-Directed Mutagenesis Kit (Agilent Technologies) was used to introduce single amino acid mutations in complementary DNA encoding VLCAD. A cysteine-to-alanine mutant at amino acid position 238 was generated with Ex-Mm01013-M14 (hereinafter referred to as pVLCAD-3×FLAG®), a plasmid encoding mouse VLCAD fused to three FLAG® tags in the C-terminal region of the protein (GeneCopoeia), as a template. […]
# [2] = target: T2, VLCAD (Mus musculus, UniProt P50544)
# T2 sequence (P50544 42-656): T1 sequence (P50544 42-656 C238A) with A197C
structure (smiles),measurement,setting,value
"N[C@@H](CCC(=O)N[C@@H](CSN=O)C(=O)NCC(=O)O)C(=O)O [GSNO, S-nitrosoglutathione]",basal activity of C238A VLCAD mutant in response to GSNO,[1],did not change
same,VLCAD specific activity of untreated eNOS-/- relative to eNOS-/- liver tissue treated with GSNO,"[2]; 5 μM GSNO 30 minutes prior to the assay, 0.25 mM palmitoyl-CoA",significantly lower
same,"KM for VLCAD enzymatic activity, treated vs untreated homogenate",[2]; eNOS-/- liver homogenates treated ex vivo with GSNO,increased five-fold
same,S-nitrosylation of VLCAD at Cys238 ex vivo,[2]; eNOS-/- liver homogenates treated with GSNO,readily modified
